From patent US20230190760A1, “ADVANTAGEOUS THERAPIES FOR DISORDERS MEDIATED BY IKAROS OR AIOLOS” (C4 Therapeutics, Inc., priority 2020, published 2023)

Legend:
[1] = test system: Interferon-response proteins in DL-40 ALCL xenograft tumors; experiment: Global proteomics and gene ontology of DL-40 ALCL xenograft tumors, 48 hours after dose; format: in vivo, mice; parameters: Log2 vs Vehicle, 0AS1: dose or concentration left out as unconfirmed
Description: […] Gene ontology analysis was done by using BINGO, a Java-based tool that is implemented as a plugin for Cytoscape. Default settings were used to assess the overexpression of GO categories and the interactions among altered proteins were determined using the STRING database, with a cutoff score of 700.

[2] = test system: NCI-H929 multiple myeloma tumors; experiment: NCI-H929 multiple myeloma xenograft, NOD SCID mice (Example 13); format: in vivo
Description: Compound 1 efficacy in two multiple myeloma cell lines (NC-H929) and (RPMI-8226) was evaluated at four different doses: 3 μg/kg, 10 μg/kg, 30 μg/kg, and 100 μg/kg. Compound 1 was administered QD (every day) orally (PO). […]
For the NCI-H929 cells, the xenograft study was conducted in female NOD SCID mice bearing NCI-H929 multiple myeloma tumors.
Statistical analysis was performed using two-way analysis of variance (ANOVA). Data are expressed as MTV±SEM.

KARPASS422 = experiment: Anti-proliferative activity, 96 hours
HH = experiment: Anti-proliferative activity, 96 hours; details: Homo sapiens

## O=C1CC[C@H](N2C(=O)c3cccc4c(Cc5ccc(CN6CCOCC6)cc5)ccc2c34)C(=O)N1 (single isomer, unassigned) [Compound 1]
[1]; 0.1 nM for 48 hr
  Log2 vs Vehicle, NEDD4: 0.375
  Log2 vs Vehicle, NUP35: −0.023
  Log2 vs Vehicle, NUP37: −0.009
  Log2 vs Vehicle, NUP43: −0.042
  Log2 vs Vehicle, NUP50: −0.009
  Log2 vs Vehicle, NUP54: 0.014
  Log2 vs Vehicle, NUP62: −0.019
  Log2 vs Vehicle, NUP85: −0.05
  Log2 vs Vehicle, NUP88: 0.031
  Log2 vs Vehicle, NUP93: 0.029
  Log2 vs Vehicle, NUP107: 0.033
  Log2 vs Vehicle, NUP133: −0.019
  Log2 vs Vehicle, NUP153: −0.013
  Log2 vs Vehicle, NUP155: 0.001
  Log2 vs Vehicle, NUP160: 0.026
  Log2 vs Vehicle, NUP188: 0.029
  Log2 vs Vehicle, NUP205: −0.001
  Log2 vs Vehicle, NUP210: 0.045
  Log2 vs Vehicle, NUP214: −0.08
  Log2 vs Vehicle, NUPL2: 0.073
  Log2 vs Vehicle, OAS2: 0.478
  Log2 vs Vehicle, OAS3: 0.884
  Log2 vs Vehicle, OASL: 0.111
  Log2 vs Vehicle, P0M121: −0.05
  Log2 vs Vehicle, P0M121C: −0.039
  Log2 vs Vehicle, PDE12: 0.013
  Log2 vs Vehicle, PIAS1: −0.114
  Log2 vs Vehicle, PINI: 0.05
  Log2 vs Vehicle, PLCG1: 0.052
  Log2 vs Vehicle, PML: 0.176
  Log2 vs Vehicle, PPM1B: −0.001
  Log2 vs Vehicle, PRKCD: 0.506
  Log2 vs Vehicle, PSMB8: 0.021
  Log2 vs Vehicle, PTPN1: 0.009
  Log2 vs Vehicle, PTPN6: 0.402
  Log2 vs Vehicle, PTPN11: 0.001
  Log2 vs Vehicle, RAE1: −0.034
  Log2 vs Vehicle, RANBP2: −0.044
  Log2 vs Vehicle, RNASEL: −0.218
  Log2 vs Vehicle, RPS27A: −0.054
  Log2 vs Vehicle, SAMHD1: 0.128
  Log2 vs Vehicle, SP100: −0.028
  Log2 vs Vehicle, STAT1: 0.218
  Log2 vs Vehicle, STAT2: 0.271
  Log2 vs Vehicle, TPR: −0.053
  Log2 vs Vehicle, TRIM5: 0.107
  Log2 vs Vehicle, TRIM14: 0.183
  Log2 vs Vehicle, TRIM21: 0.175
  Log2 vs Vehicle, TRIM22: 0.331
  Log2 vs Vehicle, TRIM25: 0.161
  Log2 vs Vehicle, TRIM26: 0.019
  Log2 vs Vehicle, TRIM35: 0.144
  Log2 vs Vehicle, TRIM38: 0.119
  Log2 vs Vehicle, TYK2: −0.039
  Log2 vs Vehicle, UBA7: 0.366
  Log2 vs Vehicle, UBE2E1: −0.218
  Log2 vs Vehicle, UBE2L6: 0.13
  Log2 vs Vehicle, UBE2N: 0.02
  Log2 vs Vehicle, VCAM1: −0.744
[1]; 48 hours after oral 100 μg/kg
  network impacted (gene ontology): Interferon (IFN) signaling was the most prominent network impacted
[1]; for 48 hr
  Log2 vs Vehicle, 0AS1: 1.414
[2]; 3 μg/kg PO QD
  Statistical Significance Compared to Vehicle: 0.04
[2]; 10 μg/kg PO QD
  Statistical Significance Compared to Vehicle: 0.0002
[2]; 30 μg/kg PO QD
  Statistical Significance Compared to Vehicle: 0.0004
[2]; 100 μg/kg PO QD
  Statistical Significance Compared to Vehicle: 0.0004
[2]; 3, 10, 30 and 100 μg/kg, NCI-H929 and RPMI-8226
  tumor volume versus pomalidomide 3000 μg/kg: reduced tumor volume more than pomalidomide
KARPASS422
  IC50: 0.189 nM
HH
  IC50: 58 nM
